Experimental data taken from publication PMC8406298, “Discovery of Fungus-Specific Targets and Inhibitors Using Chemical Phenotyping of Pathogenic Spore Germination” (mBio, 2021).

Columns and labels:
[1] = test system: Cryptococcus yeast (CHY3833 and CHY3836); assay: Yeast replication secondary screen (OD600); type: cell-based, Cryptococcus neoformans serotype D (deneoformans); settings: 10 μM, 12 h at 30°C
Experimental: (ii) Yeast replication. CHY3833 and CHY3836 were each grown in YPD liquid overnight at 30°C to saturation and then resuspended in 0.5× YPD at an OD600 of 0.005. Strains were aliquoted into 384-well plates with inhibitors and grown for 12 h at 30°C at […] before OD600 readings were taken. Compounds that caused a >10% decrease in growth were considered yeast growth inhibitors.

[2] = test system: normal human dermal fibroblasts (NHDF) cells; assay: Fibroblast cytotoxicity (CellTiter-Glo); type: cell-based; settings: 10 µM
Outline: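 Normal human dermal fibroblasts, 1 × 10^3 per well, exposed to compounds at 10 μM for 72 h at 37°C. Viability read as ATP-dependent CellTiter-Glo luminescence. Dose-response runs titrated compounds from 80 μM to 0.5 μM in duplicate.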

SMILES | Yeast Inhibition: % Inhibition [1] [%] | Cytotoxicity: Relative Cell Viability (% of Negative Control) [2]
COc1ccc(CCNC(=O)c2c(O)nc3ccccn3c2=O)cc1OC [compound 16010290] | -0.7 | 103.5 % of Negative Control
O=C(C1COc2ccccc2O1)N1CCN(c2nc3c(F)cccc3s2)CC1 (stereo not shown) [compound 16032794] | 5.2 | 115.2 % of Negative Control
CCOC(=O)c1ccc(N2C(=O)CC(SCC(=O)Nc3ccc(S(N)(=O)=O)cc3)C2=O)cc1 (stereo not shown) [compound 16187117] | 83.7 | 118.0 % of Negative Control
O=C1NC(=S)S/C1=C\c1ccc(OC(F)(F)F)cc1 [compound 16433415] | 82.9 | 79.7 % of Negative Control
OC(COCC12CC3CC(CC(C3)C1)C2)CN1CCc2ccccc2C1 (stereo not shown) [compound 16456321] | 84.7 | 12.1 % of Negative Control
OC(COc1ccc(C23CC4CC(CC(C4)C2)C3)cc1)C[N+]1(Cc2ccccc2)CCOCC1 (stereo not shown) [compound 16456368] | 101.6 | 2.8 % of Negative Control
Cc1ccc(-c2nnc(Cn3cnc4ccccc43)o2)cc1 [compound 16456942] | 57.7 | 69.7 % of Negative Control
O=C(Nc1nc2ccccc2s1)C1CCCCN1S(=O)(=O)c1ccc(Cl)s1 (stereo not shown) [compound 16801811] | 24.0 | 86.9 % of Negative Control
Cc1ccc(OCCOCC(O)CN2CCN(c3ccc(F)cc3)CC2)cc1C (stereo not shown) [compound 16804490] | 17.9 | 94.5 % of Negative Control
O=C1C(NS(=O)(=O)c2ccccc2)=C/C(=N\S(=O)(=O)c2ccc(F)cc2)c2ccccc21 [compound 16805904] | -24.2 | 89.3 % of Negative Control
O=C(COc1ccc2ccccc2c1)NCC1COC2(CCCC2)O1 (stereo not shown) [compound 16823609] | 2.4 | 99.9 % of Negative Control
CSC1=Nc2cccnc2Nc2ccccc21 [compound 16824016] | 20.9 | 94.9 % of Negative Control
Cc1cccc(NC(=O)CC2SC(=O)N(c3ccc(F)cc3)C2=O)c1 (stereo not shown) [compound 16876071] | 58.1 | 86.9 % of Negative Control
COC(=O)Nc1nc(CC(=O)N2CCN(c3cccc(Cl)c3Cl)CC2)cs1 [compound 16883840] | 3.5 | 62.6 % of Negative Control
COc1ccc2nc(NS(=O)(=O)c3ccc(Cl)s3)sc2c1 [compound 16934153] | -7.4 | 76.4 % of Negative Control
O=S(=O)(Nc1nc2c(Cl)cccc2s1)c1ccc(Cl)s1 [compound 16934160] | -6.1 | 75.3 % of Negative Control
O=S(=O)(Nc1nc2c(F)cccc2s1)c1ccc(Cl)s1 [compound 16934170] | -6.6 | 77.5 % of Negative Control
O=C(Cn1c(=O)n(Cc2cccnc2)c(=O)c2ncccc21)Nc1ccc2c(c1)OCO2 [compound 16951905] | -5.5 | 101.3 % of Negative Control
O=C(Cn1c(=O)n(Cc2ccncc2)c(=O)c2ncccc21)Nc1ccc(F)c(Cl)c1 [compound 16951979] | 27.1 | 102.8 % of Negative Control
Cc1ccccc1N=c1scc(-c2ccc(F)cc2)n1CCO [compound 16955786] | 21.9 | 85.9 % of Negative Control
Fc1ccc(Nc2ccnc3ccc(Cl)cc23)c(F)c1 [compound 17016619] | 34.0 | 67.9 % of Negative Control
CCn1c(SC/C=C\c2ccccc2)nnc1-c1ccncc1 [compound 18558862] | 36.7 | 88.2 % of Negative Control
COC(=O)c1ccc(Cn2c(S(C)(=O)=O)nc3ccccc32)cc1 [compound 18576765] | 3.8 | 88.5 % of Negative Control
O=C(CCSc1ccc(Cl)cc1)Nc1ccc2scnc2c1 [compound 18585549] | 29.1 | 96.1 % of Negative Control

SMILES | Yeast Inhibition: % Inhibition [1] [%] | Cytotoxicity: Relative Cell Viability (% of Negative Control) [2]
COc1ccc(SCCCC(=O)Nc2ncnc3sccc23)cc1 [compound 18585630] | 15.2 | 104.7 % of Negative Control
CC1CNc2ccccc2N(Cc2ccc(Br)cc2)C1=O (stereo not shown) [compound 20896311] | 5.6 | 94.5 % of Negative Control
Cc1oc2cc(OCCN3CCN(c4ccccc4F)CC3)ccc2c(=O)c1-c1ccccc1 [compound 24280258] | 7.5 | 103.4 % of Negative Control
Cc1cc(-c2nnc(NC(=O)c3ccc(C(=O)c4ccccc4)cc3)o2)nn1C [compound 25283140] | -15.6 | 79.9 % of Negative Control
CCCC(CCC)C(=O)N1CCN(c2ccc(-c3cccnc3)nn2)CC1 [compound 25283686] | 2.8 | 103.7 % of Negative Control
Cc1ccn(-c2ccc(N3CCN(C(=O)c4ccccc4Br)CC3)nn2)n1 [compound 25667819] | -7.4 | 101.9 % of Negative Control
Cc1cc(NC(=O)c2cccc(Oc3ccccc3)c2)on1 [compound 25813521] | 19.4 | 105.8 % of Negative Control
CN1C(=O)c2cccc(NC(=O)c3ccnn3C)c2C1=O [compound 25835862] | 41.6 | 104.6 % of Negative Control
COc1ccc(-c2noc(CSc3nc4ccsc4c(=O)n3C)n2)cc1 [compound 27373469] | 33.0 | 109.3 % of Negative Control
Cc1ccccc1CSc1n[nH]c(=O)c2cc(-c3ccco3)nn12 [compound 27373907] | 49.7 | 97.6 % of Negative Control
COc1ccc(-c2noc(-c3cc(-c4cc(C)ccc4C)n[nH]3)n2)cc1OC [compound 27375613] | 9.4 | 94.0 % of Negative Control
Cc1nc(C)c(C(=O)NCCn2ncc3c(N4CCN(Cc5ccccc5)CC4)ncnc32)s1 [compound 27460748] | 22.5 | 112.9 % of Negative Control
O=C(NC1CCCC1)c1csc(Nc2ccccc2)n1 [compound 30860168] | 82.0 | 93.7 % of Negative Control
O=C(NCCOc1ccc(F)cc1)c1ccc(C(F)(F)F)cc1 [compound 30865811] | 68.2 | 100.1 % of Negative Control
Cc1nc(Oc2ccccc2)cc(N2CCN(C(=O)/C=C/c3ccccc3)CC2)n1 [compound 42065409] | 15.5 | 90.0 % of Negative Control
Cc1nc(C)c(C(=O)NCCn2ncc3c(N4CCN(c5ccc(F)cc5)CC4)ncnc32)s1 [compound 42099839] | 43.6 | 79.3 % of Negative Control
O=S(=O)(NCCN1CCN(c2ccc(Cl)cc2)CC1)c1ccc(Cl)s1 [compound 42268033] | 19.1 | 102.4 % of Negative Control
Nc1nc(Cl)cc(Nc2cccc(C(F)(F)F)c2)n1 [compound 42589452] | 100.9 | 51.8 % of Negative Control
OC(COc1ccc(Br)cc1Br)CN1CCc2ccccc2C1 (stereo not shown) [compound 43842355] | 76.5 | 28.9 % of Negative Control
O=C(C1CCC1)N(Cc1cccnc1)c1nc2ccc(Cl)cc2s1 [compound 43967671] | 78.9 | 97.1 % of Negative Control
Cc1cc(-c2nnc(NC(=O)C3Oc4ccccc4OC3C)o2)n(C)n1 (stereo not shown) [compound 44070699] | -15.7 | 97.2 % of Negative Control
CCCc1cc(=O)[nH]c(-n2nc(C)cc2C)n1 [compound 44116743] | 96.0 | 64.3 % of Negative Control
Cc1ccc(COC(=O)c2ccc(C3Nc4ccccc4S(=O)(=O)N3)cc2)cc1 (stereo not shown) [compound 44117349] | 15.4 | 106.4 % of Negative Control
